Values quoted from earlier work as cited in patent US6680306B2, “Method for enhancing the effectiveness of cancer therapies” (GlycoGenesys, Inc., priority 2001, dated 2004).

Key:
BT549 cells = conditions: BT549 human breast epithelial cell line that does not express detectable levels of galectin-3
[1] = test system: galectin-3 transfected BT549 cells; conditions: galectin-3 transfected BT549 cells treated with genistein

Structure (SMILES): O=c1c(-c2ccc(O)cc2)coc2cc(O)cc(O)c12 [genistein]
- apoptosis induction (BT549 cells): effectively induces apoptosis, without detectable cell cycle arrest
- cell cycle arrest / apoptosis induction [1]: cell cycle arrest at the G(2)/M phase takes place without apoptosis induction
